Target: T1, Recombinant human mPGES-1 (Homo sapiens, UniProt O14684)
T1 construct: made in house; host or cells: CHO cells (crude microsomal fractions)
T1 sequence (O14684 1-152): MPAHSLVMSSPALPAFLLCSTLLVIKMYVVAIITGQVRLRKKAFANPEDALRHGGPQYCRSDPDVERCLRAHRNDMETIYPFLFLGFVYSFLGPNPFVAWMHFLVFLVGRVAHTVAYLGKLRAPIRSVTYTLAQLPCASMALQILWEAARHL
Test: In-vitro screening of mPGES-1 inhibitors (inhibition of PGE2 formation from PGH2, HTRF detection)
Type: biochemical
Details: mPGES-1 enzyme; for inhibition at 1 µM: 1 μM test compound, read-out: Percentage inhibition at 1 μM; for inhibition at 10 µM: 10 μM test compound, read-out: Percentage inhibition at 10 μM; for IC50: class symbols
Source text: In-Vitro Protocol for Screening of mPGES-1 Inhibitors: mPGES-1 (Microsomal prostaglandin E synthase-1) is a microsomal enzyme that converts endoperoxide substrate PGH2 (prostaglandin H2) to product PGE2 (prostaglandin E2) by isomerization in the presence of reduced glutathione (GSH). mPGES-1 inhibitors were screened by assessing their ability to inhibit formation of PGE2 from PGH2 in the presence of mPGES-1 using an anti-PGE2 antibody based detection method. Recombinant human mPGES-1 was generated in-house by expression in CHO cells (Ouellet M et al. (2002), Protein Expression and Purification 26: 489-495). The assay was set up using crude microsomal fractions at a protein concentration of 40-60 μg/mL. Test compounds were prepared in 100% dimethyl sulfoxide (DMSO) to obtain 20 mM stock solution and then diluted using assay buffer comprising 0.1 M Potassium phosphate buffer with 2 mM EDTA. The final concentration of DMSO in the reaction was 0.5% (v/v). Negative controls were comprised of all assay reagents except the enzyme. Positive controls were comprised of the enzyme reaction in the absence of any inhibitor. Test compounds were incubated for 10 minutes in assay buffer containing 2.5 mM GSH and mPGES-1 enzyme followed by addition of PGH2 at a concentration of 15 μM for 1 minute. The reaction was stopped by addition of Stannous chloride (11 mg/ml) and PGE2 levels were measured ([…] et al. (2005), Journal of Biomolecular Screening 10(6) 599-605; Goedken R E et al. (2008), Journal of Biomolecular Screening 13 (7): 619-625) by HTRF kit (CisBio)). Inhibition of mPGES-1 enzyme activity was measured using the percent of reaction occurring in the positive control. Concentration response curves were plotted using percent inhibition of maximum enzyme reaction. The IC50 value was calculated from the concentration response curve by nonlinear regression analysis using GraphPad PRISM software.

Compound | inhibition at 1 µM (crude microsomal fractions) | inhibition at 10 µM (crude microsomal fractions) | inhibition at 3 µM (3 μM test compound, crude microsomal fractions, read-out: Percentage inhibition at 3 μM) | IC50
[O-][S+]1NC(c2c(F)cccc2Cl)=NN1c1ccc(Br)cc1 (stereo not shown) [Example-1, 2-(4-Bromophenyl)-4-(2-chloro-6-fluorophenyl)-2,5-dihydro-1,2,3,5-thiatriazole-1-oxide] | 9.32% | 68.2% |  | 
O=c1[nH]c(-c2c(F)cccc2Cl)nn1-c1ccc(-c2ccc(C(F)(F)F)nc2)cc1 [Example-2, 5-(2-Chloro-6-fluorophenyl)-2-{4-[6-(trifluoromethyl)pyridin-3-yl]phenyl}-2,4-dihydro-3H-1,2,4-triazol-3-one] | 18% | 19% |  | 
O=c1[nH]c(-c2c(F)cccc2Cl)nn1-c1ccc(C#Cc2ccccc2C(F)(F)F)cc1 [Example-3, 5-(2-Chloro-6-fluorophenyl)-2-(4-{[2-(trifluoromethyl)phenyl]ethynyl}phenyl)-2,4-dihydro-3H-1,2,4-triazol-3-one] | 88.9% |  | 96.8% | < 50 nM
Cc1csc(-c2ccc(-n3nc(-c4c(F)cccc4-c4cc(C)cs4)[nH]c3=O)cc2)c1 [Example-4, 5-[2-Fluoro-6-(4-methylthiophen-2-yl)phenyl]-2-[4-(4-methylthiophen-2-yl)phenyl]-2,4-dihydro-3H-1,2,4-triazol-3-one] | 46.4% | 69.7% |  | 
O=c1[nH]c(-c2c(F)cccc2Cl)nn1-c1ccc(C#Cc2ccc(F)nc2)cc1 [Example-5, 5-(2-Chloro-6-fluorophenyl)-2-{4-[(6-fluoropyridin-3-yl)ethynyl]phenyl}-2,4-dihydro-3H-1,2,4-triazol-3-one] | 91.8% | 86.2% |  | < 50 nM
O=c1[nH]c(-c2c(F)cccc2Cl)nn1-c1ccc(C#Cc2ccc(Cl)cc2F)cc1 [Example-6, 5-(2-Chloro-6-fluorophenyl)-2-{4-[(4-chloro-2-fluorophenyl)ethynyl]phenyl}-2,4-dihydro-3H-1,2,4-triazol-3-one] | 83.9% | 87.7% |  | < 50 nM
O=c1[nH]c(-c2c(F)cccc2Cl)nn1-c1ccc(C#Cc2ccc(C(F)(F)F)cc2Cl)cc1 [Example-7, 5-(2-Chloro-6-fluorophenyl)-2-(4-{[2-chloro-4-(trifluoromethyl)phenyl]ethynyl}phenyl)-2,4-dihydro-3H-1,2,4-triazol-3-one] | 89.1% | 95.2% |  | < 50 nM
O=c1[nH]c(-c2c(F)cccc2Cl)nn1-c1ccc(-c2cccc(OC(F)(F)F)c2)cc1 [Example-8, 5-(2-Chloro-6-fluorophenyl)-2-[3′-(trifluoromethoxy)biphenyl-4-yl]-2,4-dihydro-3H-1,2,4-triazol-3-one] | 84.9% | 87.2% |  | 50 to 100 nM
O=c1[nH]c(-c2c(F)cccc2Cl)nn1-c1ccc(Nc2cccc(C(F)(F)F)c2)cc1 [Example-9, 5-(2-Chloro-6-fluorophenyl)-2-(4-{[3-(trifluoromethyl)phenyl]amino}phenyl)-2,4-dihydro-3H-1,2,4-triazol-3-one] | 1.53% | 23.2% |  | 
O=c1[nH]c(-c2c(F)cccc2Cl)nn1-c1ccc(C#Cc2cc(Cl)ccc2Cl)cc1 [Example-10, 5-(2-Chloro-6-fluorophenyl)-2-{4-[(2,5-dichlorophenyl)ethynyl]phenyl}-2,4-dihydro-3H-1,2,4-triazol-3-one] | 84.9% | 91.2% |  | < 50 nM
COCCCNc1nc(-c2c(F)cccc2Cl)nn1-c1ccc(Br)cc1 [Example-11, 1-(4-Bromophenyl)-3-(2-chloro-6-fluorophenyl)-N-(3-methoxypropyl)-1H-1,2,4-triazol-5-amine] | 2.34% | 71.7% |  | 
O=c1[nH]c(-c2c(F)cccc2Cl)nn1-c1ccc(C#Cc2cccc(Cl)c2F)cc1 [Example-12, 1-(4-((3-Chloro-2-fluorophenyl)ethynyl)phenyl)-3-(2-chloro-6-fluorophenyl)-1H-1,2,4-triazol-5(4H)-one] | 84.8% | 87.5% |  | < 50 nM

Source: US10821100B2, “Triazolone compounds as mPGES-1 inhibitors” (Glenmark Pharmaceuticals S.A., priority 2012, dated 2020)
